Patent US12208105B2, “Methods for attenuating graft-versus-host disease and opportunistic infections” (priority 2018, dated 2025)

Assays:
CCR7 [1] = biological target: T1, CCR7 (Mus musculus, UniProt P47774); assay: Trans-well chemotaxis assay, primary murine T cells; type: cell-based
T1 construct: confirm that hits identified in the HTS were active against native CCR7; endogenous in cells; host or cells: primary naive (CD25neg) T cells from C57BL/6 mice
T1 sequence (P47774 25-378): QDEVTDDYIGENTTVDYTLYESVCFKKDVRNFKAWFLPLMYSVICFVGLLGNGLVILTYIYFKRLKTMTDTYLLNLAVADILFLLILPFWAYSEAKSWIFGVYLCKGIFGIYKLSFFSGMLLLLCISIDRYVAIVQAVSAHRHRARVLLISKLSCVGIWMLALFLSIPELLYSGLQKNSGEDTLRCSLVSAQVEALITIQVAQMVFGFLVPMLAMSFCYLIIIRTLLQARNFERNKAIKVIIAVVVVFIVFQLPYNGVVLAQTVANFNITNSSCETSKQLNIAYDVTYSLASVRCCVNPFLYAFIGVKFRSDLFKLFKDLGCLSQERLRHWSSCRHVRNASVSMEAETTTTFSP
Procedure: (§1) FIGS. 1A-1D show cosalane impairs CCR7 driven human and murine chemotaxis. (A, B) Chemotaxis media with or without CCL19 (A) or CCL21 (B) was added to the lower chambers of the chemotaxis device. Previously untreated H9 cells were then placed in the upper chambers of the device with or without cosalane at a concentration of 2 μM. The chamber was then placed at 37° C. for 3.5 hours and total H9 migration from each upper to lower chamber determined. (A) *P=0.048 for comparison between H9 cells/30 nM CCL19 and H9 cells/30 nM CCL19/2 μM cosalane by Student's t test. (B) P>0.05 for comparison between H9 cells/200 nM CCL21 and H9 cells/200 nM CCL21/2 μM cosalane. (C, D) Chemotaxis media with or without CCL19 (C) or CCL21 (D) was added to the lower chambers of the chemotaxis device. Previously untreated primary murine T cells were then placed in the upper chambers of the device with or without cosalane at a concentration of 2 μM. Total T cell migration from each upper to lower chamber was then determined. (C) *P=0.029. (D) *P<0.001.
(§2) While useful from a screening perspective, our primary reporter assays for the HTS were not physiologic. As a result, it was important to confirm that hits identified in the HTS were active against native CCR7 and could block an actual function mediated by the receptor. For this, we used a well-described trans-well chemotaxis assay system using human H9 cells, a cutaneous T cell lymphoma line known to express high levels of CCR7 and to migrate in response to its ligands (Ott et al., J. Pharmacol. Toxicol. Meth. 51:105 (2005)). In addition, we utilized primary mouse, naïve (CD25^neg) T cells obtained from C57BL/6 mice. As depicted in FIG. 1A, human H9 cells placed in the upper chambers of the chemotaxis device readily migrated through the separating membrane when CCL19 was present in the lower chamber. […] Similarly, murine T cell chemotaxis was also impaired by cosalane in response to both CCL19 and CCL21 (FIGS. 1C-1D).
(§3) To evaluate this possibility, human H9 cells were incubated with 10 mcg/ml (13 μM) of cosalane versus DMSO vehicle for one hour and then washed free of the compound. The cells were then placed into the chemotaxis chamber as was done in FIGS. 1A-1D. […] Similar experiments were performed with naïve primary mouse T cells.

B6 into B6D2 aGVHD model = assay: aGVHD, B6 into B6D2 transplant, cosalane dosed systemically; type: in vivo, mouse
Procedure: Transplantation Procedures: Recipient mice were irradiated on transplant day −1. Recipients were then administered T cell depleted (TCD) bone marrow cells +/−CD25^− column-purified conventional T cells (Tcons) to induce aGVHD as previously described (Wysocki et al., J. Immunol. 173:845 (2004); Carlson et al., Blood 113:1365 (2009)). Tcons consisted of CD4^+ and CD8^+ T cells in a 1:1 ratio. For ex-vivo cosalane incubations, cell populations were suspended in serum/protein free injectable saline unless otherwise indicated. […] The cells were then administered immediately to recipients by tail vein injection.

[2] = system: B6 into BALB/c aGVHD model; assay: aGVHD, B6 into BALB/c MHC mismatched allograft, Tcons incubated ex vivo; type: in vivo, mouse
donor Tcon accumulation = assay: Organ eGFP quantification (donor Tcon accumulation, anti-eGFP ELISA); type: in vivo, mouse
[3] = system: murine cytomegalovirus (mCMV); assay: Murine cytomegalovirus plaque assay on 3T3 fibroblasts; type: cell-based
serum albumin = serum albumin (Homo sapiens, UniProt P02768); settings: cited from earlier work
Sequence of serum albumin (P02768 25-609): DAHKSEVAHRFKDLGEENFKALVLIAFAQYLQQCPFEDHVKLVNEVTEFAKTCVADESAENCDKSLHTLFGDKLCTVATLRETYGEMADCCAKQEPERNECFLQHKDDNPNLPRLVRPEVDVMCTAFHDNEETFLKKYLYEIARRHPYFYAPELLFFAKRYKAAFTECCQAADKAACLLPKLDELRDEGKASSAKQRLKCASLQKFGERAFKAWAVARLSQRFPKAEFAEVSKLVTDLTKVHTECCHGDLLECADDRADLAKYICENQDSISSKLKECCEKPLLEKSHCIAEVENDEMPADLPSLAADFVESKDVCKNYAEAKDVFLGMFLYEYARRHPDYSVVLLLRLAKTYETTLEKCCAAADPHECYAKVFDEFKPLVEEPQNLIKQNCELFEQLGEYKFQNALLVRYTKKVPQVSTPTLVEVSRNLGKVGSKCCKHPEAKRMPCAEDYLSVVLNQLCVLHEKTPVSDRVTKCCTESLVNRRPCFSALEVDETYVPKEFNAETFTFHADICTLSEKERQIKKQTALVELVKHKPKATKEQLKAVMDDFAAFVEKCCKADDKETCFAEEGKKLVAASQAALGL

B6 Tcons = assay: Tcon proliferation assay
Procedure: (A) B6 Tcons were purified and incubated with increasing concentrations of cosalane or equal volumes of DMSO vehicle in normal saline for one hour at 37° C. The cells were then washed and cultured on 24 well plates pre-coated with anti-CD3 and anti-CD28 antibody in the presence of supplemental IL-2 for 72 hours. The number of cells per well were then quantified.
Tcon proliferation assay: Purified CD25^− B6 Tcons were incubated with cosalane at the indicated concentrations or an equal volume of DMSO vehicle for one hour at 37° C. The cells were then washed and cultured on 24-well plates previously incubated overnight with anti-CD3 and anti-CD28 antibody at 10 μg/ml. The cells were cultured for 72 hours in complete media supplemented with murine interleukin-2 at 100 IUs/ml and then counted using a hemacytometer.
Purified B6 Tcons were isolated as before and incubated with cosalane at increasing concentrations ranging from 10 μg/ml (13 μM—the concentration used for the B6 into B6D2 survival experiment described in FIGS. 3D and 3E) to 30 μg/ml (39 μM) or an equal volume of DMSO diluted in normal saline. The cells were then washed, placed on 24 well plates pre-coated with anti-CD3 and anti-CD28 immunoglobulin, and cultured for 72 hours in media containing supplemental IL-2.

TNF and IFN-γ = assay: Organ inflammatory cytokines by ELISA after HSCT; settings: day +14
Procedure: (A, B) B6D2 mice were lethally irradiated on transplant day −1. On day 0 recipients were administered 3×10^6 TCD B6 BM cells +/−4×10^6 B6 Tcons. Donor TCD BM cells, donor Tcons, both cell populations, or neither were incubated ex vivo with cosalane at 15 μg/ml for one hour prior to transplant. Those cells not treated with cosalane were incubated with an equal volume of DMSO vehicle. Mice were then followed for survival and scored for aGVHD. N=2 BM only. N=5 for all other treatment groups. […] (C, D) B6D2 mice were lethally irradiated on transplant day −1. On day 0 recipients were administered 3×10^6 TCD eGFP^− B6 BM cells plus 4×10^6 eGFP^+ B6 Tcons. Donor Tcons were incubated ex vivo with DMSO vehicle or cosalane diluted in normal saline at 15 μg/ml. The cells were then mixed with untreated TCD B6 BM cells and administered immediately to recipient mice by tail vein injection. Recipient mice were subsequently killed on day +7 (C) or day +14 (D). Lymphoid organs (left panels) and aGVHD target organs (right panels) were subsequently harvested and homogenized. Total eGFP levels were then determined using an anti-eGFP ELISA. N=7 per treatment group. […] (E, F) B6D2 mice were transplanted as in (C, D) and their organs removed and homogenized on day +7 (E) or day +14 (F). Total IFN-y (left panels) and TNF (right panels) was then determined by ELISA. N=7 per treatment group.

CCR7 [4] = biological target: T2, CCR7 (Homo sapiens, UniProt P32248); assay: Trans-well chemotaxis assay, human H9 cells; type: cell-based; parameters: confirm that hits identified in the HTS were active against native CCR7; endogenous in cells; host or cells: H9 cells (human cutaneous T cell lymphoma line)
T2 sequence (P32248 25-378): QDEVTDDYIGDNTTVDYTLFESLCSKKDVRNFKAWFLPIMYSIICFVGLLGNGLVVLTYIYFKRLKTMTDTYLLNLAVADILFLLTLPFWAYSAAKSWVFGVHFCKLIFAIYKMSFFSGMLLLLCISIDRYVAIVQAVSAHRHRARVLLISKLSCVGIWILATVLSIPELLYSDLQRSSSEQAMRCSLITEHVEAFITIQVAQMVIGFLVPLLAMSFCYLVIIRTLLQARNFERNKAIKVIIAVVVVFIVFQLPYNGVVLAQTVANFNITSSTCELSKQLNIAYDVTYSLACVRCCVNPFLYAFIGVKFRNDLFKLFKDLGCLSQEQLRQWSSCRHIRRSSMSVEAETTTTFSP
Procedure: as §1, §2, §3

[5] = 10 mcg/ml (13 μM), then washed, vs DMSO
[6] = day +14, Tcons incubated 15 μg/ml
[7] = 10 mcg/ml (13 μM) one hour, then washed

Q: Which “murine T cell chemotaxis in response to CCL19” value (CCR7 [1]; 2 μM cosalane in upper chamber) does the source give for CC(C)CCC[C@@H](C)[C@H]1CC[C@H]2[C@@H]3CC[C@H]4C[C@@H](CCC=C(c5cc(Cl)c(O)c(C(=O)O)c5)c5cc(Cl)c(O)c(C(=O)O)c5)CC[C@]4(C)[C@H]3CC[C@]12C [Cosalane, cosalane] here?
A: The value was “impaired”.

Q: And the “murine T cell chemotaxis in response to CCL21” value (CCR7 [1]; 2 μM cosalane in upper chamber)?
A: Its value is “impaired”.

Q: What about the “primary murine T cell chemotaxis in response to CCL19 after pretreatment” value (CCR7 [1]; [5]) of the same molecule?
A: Its value is “significantly reduced”.

Q: What about the “primary murine T cell chemotaxis in response to CCL21 after pretreatment” value (CCR7 [1]; [5]) of the same molecule?
A: Its value is “significantly reduced”.

Q: And the “aGVHD (survival and scores) with systemic dosing” value (B6 into B6D2 aGVHD model; 10 mg/kg intravenous, day 0, +3, +6)?
A: The value was “did not attenuate aGVHD and may have actually worsened clinical outcomes”.

Q: And the “dosages much better tolerated by irradiated recipients” value (B6 into B6D2 aGVHD model; irradiated recipients, 10 mg/kg excessively high)?
A: The value was 0.5 to 2 mg/kg.

Q: And the survival times ([2]; Tcons incubated 15 μg/ml in saline)?
A: Its survival times is “prolonged survival times”.

Q: What about the survival ([2]; Tcons incubated 30 μg/ml) of the same molecule?
A: Its survival is “most recipients surviving to the end of the study period”.

Q: What about the “donor Tcon numbers within the spleen, ILN, and MLN” value (donor Tcon accumulation; 36 hours after transplant, Tcons incubated 15 μg/ml) of the same molecule?
A: The value was “significant reduction in donor Tcon numbers”.

Q: And the “donor Tcon accumulation in secondary lymphoid tissues and aGVHD target organs” value (donor Tcon accumulation; day +7, Tcons incubated 15 μg/ml)?
A: The value was “no differences in donor Tcon accumulation”.

Q: And the “donor Tcon accumulation within host lymphoid sites” value (donor Tcon accumulation; [6])?
A: Its value is “no differences in donor Tcon accumulation”.

Q: What about the “donor Tcons within the colon and liver” value (donor Tcon accumulation; [6]) of the same molecule?
A: The value was “significant reduction in donor Tcons”.

Q: And the “mCMV plaque number / activity, compound in infectivity media” value ([3]; 15 μg/ml throughout infection, MOI 0.05 and 0.005, vs DMSO)?
A: The value was “significantly reduced plaque number”.

Q: And the “mCMV visible cytopathic effect, isolated pretreatment of 3T3 cells” value ([3]; pretreatment only)?
A: Its value is “virtually no effect”.

Q: What about the albumin avidity (serum albumin) of the same molecule?
A: Its albumin avidity is “high albumin avidity”.

Q: What about the “Tcon cell numbers after culture” value (B6 Tcons; 10 μg/ml (13 μM) to 30 μg/ml (39 μM), one hour, washed, 72 hours anti-CD3/anti-CD28/IL-2) of the same molecule?
A: Its value is “no differences in cell numbers”.

Q: What about the cytotoxicity in vitro (B6 Tcons; doses up to 39 μM) of the same molecule?
A: Its cytotoxicity in vitro is “did not induce any apparent cytotoxicity”.

Q: And the “TNF and IFN-γ levels in the host colon” value (TNF and IFN-γ)?
A: Its value is “significantly reduced”.

Q: What about the “H9 cell migration in response to CCL19” value (CCR7 [4]; 2 μM cosalane in upper chamber, 30 nM CCL19, 3.5 hours, vs DMSO) of the same molecule?
A: Its value is “inhibited versus DMSO”.

Q: What about the “H9 cell CCL21 driven chemotaxis” value (CCR7 [4]; 2 μM cosalane in upper chamber, 200 nM CCL21) of the same molecule?
A: Its value is “reduced by cosalane, although this did not achieve statistical significance”.

Q: What about the “H9 chemotaxis in response to CCL19 after pretreatment alone” value (CCR7 [4]; [7]) of the same molecule?
A: Its value is “significantly reduced”.

Q: And the “H9 chemotaxis in response to CCL21 after pretreatment alone” value (CCR7 [4]; [7])?
A: The value was “significantly reduced”.
